We go through four compounds from patent publication USRE30413E, “Bleomycinic acid and process for preparing thereof” (Zaidan Hojin Biseibutsu Kagaku Kenkyu Kai, priority 1971, dated 1980).

In one data set the test system is Mycobacterium 607. The data set can be described thus: cup test, antimicrobial activity to Mycobacterium 607. The data set is classed as cell-based. The conditions noted are these: standard bleomycin A2 = 1000 μ/mg. The text has this: The endpoint of the hydrolysis reaction can be determined by a reaction in antimicrobial activity of the bleomycin substrate as measured by conventional cup tests using Mycobacterium 607, or by a change in the Rf value during thin layer chromatography.

The next data set relates to ICR-JCL male mice. The conditions noted are these: for Total, degree of fibrosis ++: number of mice with grade ++, fourth Total column; for Total, degree of fibrosis -: number of mice with grade -, first Total column; for Total, degree of fibrosis ±: number of mice with grade ±, second Total column.
Another data set deals with HeLa (S3 bb cell line). To be noted: third day after addition.
Data set [1] can be described thus: solubility of the hydrochloride in solvents. The data set is classed as physicochemical.

Where two headings read alike, the source gives them in different places.

Description for HeLa (S3 bb cell line): wherein the inhibitory effect= [formula] Co: relative number of cell on the first day t3 : relative number of cell on the third day after the addition of a bleomycin (3 mcg/ml in final)
C3 : relative number of cell in negative control on the third day
Description for ICR-JCL male mice: The mice were bred for 5 weeks after the final administration and were then dissected. The right and left lungs were observed by microscopic examination.

Turning to `Cc1c(N)nc([C@H](CC(N)=O)NC[C@H](N)C(N)=O)nc1C(=O)N[C@H](C(=O)N[C@H](C)[C@@H](O)[C@H](C)C(=O)N[C@H](C(=O)NCCc1nc(-c2nc(C(=O)NCCC[S+](C)C)cs2)cs1)[C@@H](C)O)[C@@H](O[C@@H]1O[C@@H](CO)[C@@H](O)[C@H](O)[C@@H]1O[C@H]1O[C@H](CO)[C@@H](O)[C@H](OC(N)=O)[C@@H]1O)c1c[nH]cn1.[Br-]` [bleomycin A2, 3-dimethylsulfopropylamino-bleomycin], the “antimicrobial activity to Mycobacterium 607” value with Mycobacterium 607 stood at 1000 μ/mg.
For the compound `Cc1c(N)nc([C@H](CC(N)=O)NC[C@H](N)C(N)=O)nc1C(=O)N[C@H](C(=O)N[C@H](C)[C@@H](O)[C@H](C)C(=O)N[C@H](C(=O)NCCc1nc(-c2nc(C(=O)NCCCCN=C(N)N)cs2)cs1)[C@@H](C)O)[C@@H](O[C@@H]1O[C@@H](CO)[C@@H](O)[C@H](O)[C@@H]1O[C@H]1O[C@H](CO)[C@@H](O)[C@H](OC(N)=O)[C@@H]1O)c1cnc[nH]1` [bleomycin B2, 4-guanidinobutylamino-bleomycin], the “Total, degree of fibrosis ++” value in the data set on ICR-JCL male mice (lung L) was found to be 1; in the data set on ICR-JCL male mice (lung R) it was 0. Also, the “Total, degree of fibrosis -” value was determined as 5 in the data set with ICR-JCL male mice (lung L) and 4 with ICR-JCL male mice (lung R). Besides, the “Total, degree of fibrosis ±” value is listed as 1 in the data set on ICR-JCL male mice (lung L) and 3 in the data set on ICR-JCL male mice (lung R). In addition, the Inhibitory effect in the data set on cell culture of Yoshida (0.625 mcg/ml) is on record as 8.6; with cell culture of Yoshida (1.25 mcg/ml), 34.0; with cell culture of Yoshida (2.5 mcg/ml), 56.0; in the data set on HeLa (S3 bb cell line) (1.5 mcg/ml) it was 33; in the data set with HeLa (S3 bb cell line) (3 mcg/ml), 64.
For the compound benzylamino-bleomycin, the Inhibitory effect in the data set with HeLa (S3 bb cell line) (1.5 mcg/ml) was 38; in the data set with HeLa (S3 bb cell line) (3 mcg/ml), 73; with HeLa (S3 bb cell line) (6 mcg/ml), 92.
As to hydrochloride of bleomycinic acid, the solubility result in data set [1] (acetic acid) is “sparingly soluble”; in data set [1] (acetone) it was “insoluble”; in data set [1] (dimethylsulfoxide), “sparingly soluble”; in data set [1] (ethanol), “insoluble”; in data set [1] (ether) it was “insoluble”; in data set [1] (ethyl acetate), “insoluble”. The solubility result in data set [1] (methanol) was “sparingly soluble”; in data set [1] (water), “soluble”.
